Several values for one entry are separate records, joined by “and”; a condition that tells them apart may be missing. Equal entries are not always repeated. Where two headings read alike, the source gives them in different places. Ends that are not written are not given here.

Here are results for twelve molecules from US20250136655A1, “INJECTION PEN FOR SUBCUTANEOUS ADMINISTRATION OF A PEPTIDE” (Zealand Pharma A/S, priority 2017, published 2025).

For series [1] the following is noted: cited from earlier work.
Series [2] in a line: Phase 2 clinical trial PK profile of ZP1848 and metabolites in SBS patients. Type of series: in vivo. As to conditions: human, plasma. On the procedure:
The study was designed as a randomized, cross-over and double-blinded with three different doses of ZP1848 (10 mg, 1 mg, 0.1 mg) in 16 SBS patients.
The 18 SBS patients (16 patients completed the study) were randomized evenly and in a double-blinded fashion to each of the six cross-over dose level combinations: 10 mg/1 mg, 10 mg/0.1 mg, 1 mg/10 mg, 1 mg/0.1 mg, 0.1 mg/10 mg, 0.1 mg/1 mg of ZP1848. The patients were injected once daily (QD) subcutaneously with the above doses of ZP1848.
Blood samples for PK analysis were collected on several study visits throughout the study period: the study comprised a 1st baseline balance study (4 days), a 1st treatment period (21 days) including a 1st treatment balance study (last 4 days of 1st treatment period), followed by a wash-out period (at least 4 weeks); and a 2nd baseline balance study (4 days), a 2nd treatment period (21 days) including a 2nd treatment balance study (last 4 days of 2nd treatment period) and a follow-up period (at least 4 weeks).
PK sampling was performed at visit 11 (1st treatment, balance study) and visit 17 (second day of 2nd baseline study-after a wash out period), and again at visit 25 (2nd treatment balance study) and at visit 29 (last day of follow-up period).
At day visit 11 and visit 25 a full PK profile in steady state was investigated. PK samples were taken prior to injection of ZP1848, and at the following time points (+/−10 minutes) after trial product administration: 1 h, 2 h, 4 h, 6 h, 8 h, 10 h, 12 h and 24 h. Each PK sample contained 2 mL of blood, resulting in a total of […] blood drawn for PK purposes. The plasma sample was immediately stored at −80° C. after sampling.
Plasma samples were analyzed after immunoaffinity extraction followed by liquid chromatography mass spectrometry (LC-MS/MS). […] Plasma terminal elimination half-life (T½) was determined as In (2)/ke where ke is the magnitude of the slope of the log linear regression of the log concentration versus time profile during the terminal phase.

Series [3] in a line: Phase 1 PK trial of glepaglutide in healthy subjects, half-life of metabolite ZP2469. The settings on record: per subject; for half-life: human, plasma. Format: in vivo, human. The text has this: A Phase 1, Open-Label, Partially Randomized, 3-Part, Parallel Group Trial to Evaluate the Pharmacokinetic Profile of glepaglutide (ZP1848) After a Single Intravenous Injection and After Multiple Subcutaneous Injections in Healthy Human Subjects A Phase 1 clinical trial to characterize the pharmacokinetic (PK) profiles of glepaglutide (ZP1848) and its primary active metabolites following once-weekly and once daily subcutaneous (SC) injections and after a single intravenous (IV) infusion in healthy subjects was conducted. This included evaluating the pharmacodynamic effects on plasma citrulline levels following SC dosing in healthy subjects. The trial confirmed the feasibility of dosage regimes in which GLP-2 analogues are administered to patients in weekly dosage regimes and compare weekly dosage regimes with daily dosing.
The trial design was a single-center, open-label, partially randomized, 3-part, parallel group trial to characterize the PK profile of glepaglutide administered by SC injection once daily for 7 days (Part 1), SC injection once weekly for 6 weeks (Part 2), and as a single IV infusion (Part 3) in healthy subjects.
Group A: 1 mg glepaglutide once daily, given as single SC injections on Days 1 to 7.
Group B: 5 mg glepaglutide once daily, given as single SC injections on Days 1 to 7.
Group C: 5 mg glepaglutide once weekly, given as single SC injections on Days 1, 8, 15, 22, 29, and 36.
Group D: 10 mg glepaglutide once weekly, given as single SC injections on Days 1, 8, 15, 22, 29, and 36.
Blood samples were collected for the analysis of plasma concentrations of glepaglutide and its primary active metabolites, ZP2469 (ZP18481-34) and ZP2711 (ZP18481-35); samples were assayed using validated analytical methods. The following PK parameter estimates were calculated using standard non-compartmental methods: terminal elimination half-life (t1/2), total body clearance of drug after IV administration (CL; IV dose, parent drug only), apparent total clearance (CL/F; SC doses, parent drug only), volume of distribution at steady state (Vss; IV dose, parent drug only), apparent volume of distribution at steady state (Vss/F; SC doses, parent drug only), volume of distribution (Vz; IV dose, parent drug only), apparent volume of distribution (Vz/F; SC doses, parent drug only), maximum observed plasma concentration (Cmax), area under the plasma concentration-time curve (AUC) over a dosing interval (AUCT), AUC from time zero to infinity (AUCinf), AUC from time zero to the time of the last measurable concentration (AUClast), and time of the maximum observed plasma concentration (tmax). Metabolite exposure (based on Cmax, AUCT, and AUCinf) were determined for each group as a ratio of the 2 primary active metabolites, ZP2469 (ZP18481-34) and ZP2711 (ZP18481-35), relative to the glepaglutide parent drug.
The PK parameters estimates for glepaglutide, ZP2469 (ZP18481-34), and ZP2711 (ZP 18481-35) were listed and summarized using standard descriptive statistics. The primary PK parameters are t1/2 for glepaglutide, ZP2469 (ZP18481-34), and ZP2711 (ZP18481-35); and CL (IV dose), CL/F (SC doses), Vss(IV dose), Vss/F (SC dose), Vz(IV dose), and Vz/F (SC doses) for glepaglutide. The half-life is calculated as LN(2)/ke where ÷ke is estimate from the slope of the terminal part of the LN(concentration) versus time curve, with repeats regressions of LN(concentration) values using the last three points with non-zero concentrations, then the last four points, last five points, etc. Points with a concentration value of zero are not included. Points prior to Cmax are not used. […] 2) ke must be calculated from at least three data points. 3) The estimated slope must be negative, so that its negative ke is positive. The results of the calculations carried out with preliminary data are shown in Table 4, while the results of the calculations with the complete final data set are shown in Table 5. […]

The next series relates to Wistar rats. Kind of series: Intestinotrophic effects following 26-week chronic exposure in rats. Type of series: in vivo. As to conditions: in words. The procedure:
Wistar rats were dosed subcutaneously (SC) with vehicle, 1, 3 and 10 mg/kg ZP1848 on a daily basis for 26 weeks. Further sub-groups of control and high-dose animals were allowed a 6-week recovery period following completion of the dosing period. […] The length and the weight of the small and large intestines were measured at necropsy as indicators of intestinotrophic effects and the intestinal tract was evaluated histologically.

For another series, the target named is T1, human GLP-2 receptor (human, UniProt O95838 1-553).
T1 sequence (looked up): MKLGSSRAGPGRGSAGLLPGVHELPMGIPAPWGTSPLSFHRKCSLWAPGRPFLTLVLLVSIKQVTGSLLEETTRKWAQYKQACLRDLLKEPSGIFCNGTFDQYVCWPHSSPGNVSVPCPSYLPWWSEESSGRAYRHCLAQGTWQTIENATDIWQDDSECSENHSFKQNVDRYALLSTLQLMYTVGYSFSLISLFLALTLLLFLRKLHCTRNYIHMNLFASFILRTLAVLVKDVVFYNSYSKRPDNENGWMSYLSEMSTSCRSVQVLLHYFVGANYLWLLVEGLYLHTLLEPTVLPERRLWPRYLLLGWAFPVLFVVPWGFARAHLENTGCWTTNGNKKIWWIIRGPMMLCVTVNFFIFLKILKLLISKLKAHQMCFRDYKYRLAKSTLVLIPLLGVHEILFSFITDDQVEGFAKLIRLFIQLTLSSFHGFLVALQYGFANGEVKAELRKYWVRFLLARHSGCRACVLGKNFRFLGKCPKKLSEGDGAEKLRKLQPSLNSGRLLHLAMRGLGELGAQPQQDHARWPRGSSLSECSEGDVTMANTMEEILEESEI
Kind of series: cell-based or functional assay.

By half-life is commonly meant how long it takes for the measured level to halve. With `CC[C@H](C)[C@H](NC(=O)[C@H](Cc1ccccc1)NC(=O)[C@H](CC(=O)O)NC(=O)[C@H](CCCNC(=N)N)NC(=O)[C@H](C)NC(=O)[C@H](C)NC(=O)[C@H](CC(C)C)NC(=O)[C@H](CC(N)=O)NC(=O)[C@H](CC(=O)O)NC(=O)[C@H](CC(C)C)NC(=O)[C@@H](NC(=O)[C@@H](NC(=O)[C@H](CC(N)=O)NC(=O)[C@H](CCSC)NC(=O)[C@H](CCC(=O)O)NC(=O)[C@H](CC(=O)O)NC(=O)[C@H](CO)NC(=O)[C@H](Cc1ccccc1)NC(=O)[C@H](CO)NC(=O)CNC(=O)[C@H](CC(=O)O)NC(=O)CNC(=O)[C@@H](N)Cc1c[nH]cn1)[C@@H](C)O)[C@@H](C)CC)C(=O)N[C@@H](CC(N)=O)C(=O)N[C@@H](Cc1c[nH]c2ccccc12)C(=O)N[C@@H](CC(C)C)C(=O)N[C@H](C(=O)N[C@@H](CCC(N)=O)C(=O)N[C@H](C(=O)N[C@@H](CCCCN)C(=O)N[C@H](C(=O)N[C@H](C(=O)N[C@@H](CC(=O)O)C(=O)O)[C@@H](C)O)[C@@H](C)CC)[C@@H](C)O)[C@@H](C)CC` [Teduglutide], the half-life entry in series [1] (in vivo) was “about two”.

“GLP-2 [3-33]: truncated GLP-2 [3-33] (DGSFSDEMNTILDNLAARDFINWLIQTKITD; Glucagon-like peptide 2; UniProt P01275 148-178, looked up, fragment)”: the half-life in series [1] (in humans) was approximately 0.45 h.

Consider “H-HGEGTFSSELATILDALAARDFIAWLIATKITDK-OH [ZP2469]”, for which the half-life was 120 to 408 h in series [2] (subcutaneous, Phase 2 study, SBS patients, read-out: terminal plasma half-life); 56 h in series [3] (sc, 10 mg, preliminary results, Group D, 10 mg glepaglutide SC once weekly, after 1 dose, read-out: Half-life ZP2469 (converted)); 94 h in series [3] (subcutaneous, 1 mg, final results, Group A, 1 mg once daily, after 7 doses, read-out: Half-life of ZP2469 in the interval from 72 to 168 hours post dose (converted)). Besides, the “Half-life of ZP2469 in the interval from 72 to 168 hours post dose” value in series [3] (final results, Group A, 1 mg once daily, after 7 doses) was 75 h; in series [3] (final results, Group C, 5 mg once weekly, after 1 dose) it was 59 h and 75 h; in series [3] (final results, Group C, 5 mg once weekly, after 6 doses), 57 h; in series [3] (final results, Group D, 10 mg once weekly, after 1 dose) it was 54 h and 46 h and 35 h and 60 h and 26 h and 53 h and 43 h and 33 h and 45 h and 38 h; in series [3] (final results, Group D, 10 mg once weekly, after 6 doses), 59 h and 53 h and 42 h and 48 h. Further, the “Half-life ZP2469” value in series [3] (preliminary results, Group A, 1 mg glepaglutide SC once daily, after 7 doses) was 20 h; in series [3] (preliminary results, Group C, 5 mg glepaglutide SC once weekly, after 1 dose) it was 17 h; in series [3] (preliminary results, Group D, 10 mg glepaglutide SC once weekly, after 1 dose), 38 h and 34 h.

With “H-HGEGTFSSELATILDALAARDFIAWLIATKITDKK-OH [ZP2711]”, the half-life in series [2] (sc, plasma terminal elimination half-life, per subject, after SC once-daily ZP1848, read-out: Half-life (converted)) is 336 h.

In the case of “H-HGEGTFSSELATILDALAARDFIAWLIATKITDKKKKKK-NH2 [ZP1848]”, in the series on Wistar rats (1, 3 and 10 mg/kg SC daily for 26 weeks), the “mucosal hyperplasia of the duodenum, jejunum and ileum” value was “dose-related increase”. Besides, the “length and weight of the large intestine” value with Wistar rats (SC daily for 26 weeks) is recorded as “slightly increased”.

Regarding “Hy-His-Ala-Asp-Gly-Ser-Phe-Ser-Asp-Glu-Met-Asn-Thr-Ile-Leu-Asp-Asn-Leu-Ala-Ala-Arg-Asp-Phe-Ile-Asn-Trp-Leu-Ile-Gln-Thr-Lys-Ile-Thr-Asp-OH [GLP-2 [1-33]]”, the half-life result in series [1] (in humans) is listed as “around 7 minutes”; in series [1] (in humans, listed as native GLP-2), “seven”.

With Teduglutide (peptide), in the series with human GLP-2 receptor, the EC50 Avg (nM), cAMP AlphaScreen in HEK293 cells expressing hGLP-2R stood at 0.03 nM.

B1: ZP2469 (peptide)
peptide: HGEGTFSSELATILDALAARDFIAWLIATKITDK-OH
With B1, in the series with human GLP-2 receptor, the “EC50_Avg (nM), cAMP AlphaScreen in HEK293 cells expressing hGLP-2R” value (from here on “EC50_Avg (nM), cAMP AlphaScreen”) stood at 0.052 nM.

B2: ZP2949 (peptide)
peptide: HGEGTFSSELATILDALAARDFIAWLIATKITDKKK-OH
As to B2, in the series with human GLP-2 receptor, the “EC50_Avg (nM), cAMP AlphaScreen” value is 0.11 nM.

B3: ZP1848 (peptide)
peptide: HGEGTFSSELATILDALAARDFIAWLIATKITDKKKKKK-NH2
As to B3, the “EC50_Avg (nM), cAMP AlphaScreen” value in the series with human GLP-2 receptor came out at 0.3 nM.

B4: ZP2711 (peptide)
peptide: HGEGTFSSELATILDALAARDFIAWLIATKITDKK-OH
On to B4, for which the “EC50_Avg (nM), cAMP AlphaScreen” value with human GLP-2 receptor was 0.072 nM.

B5: ZP1846 (peptide)
peptide: HGEGSFSSELSTILDALAARDFIAWLIATKITDKKKKKK-NH2
In the case of B5, in the series with human GLP-2 receptor, the “EC50_Avg (nM), cAMP AlphaScreen” value worked out at 0.26 nM.
